Drawing on ChEMBL document CHEMBL3352267, “The design and implementation of a generic lipopeptide scanning platform to enable the identification of 'locally acting' agonists for the apelin receptor” (Bioorg Med Chem Lett, 2014), this text covers Activity, EC50 and %max for twelve compounds.

Common to all, as to type: functional, cell-based
In assay [1] the target is Sphingosine 1-phosphate receptor Edg-5/Sphingosine 1-phosphate receptor Edg-3 (Homo sapiens) (UniProt O95136+Q99500). As to the kind of experiment: Agonist activity at S1P2/3 receptor in HEK293 cells assessed as inhibition of forskolin-induced cAMP level after 1 hr by alphascreen immunoassay. (cAMP levels reflect the balance of adenylyl cyclase and phosphodiesterase activity.)

The target in a further assay is T1, Apelin receptor (Homo sapiens, UniProt P35414).
T1 sequence (P35414 whole entry): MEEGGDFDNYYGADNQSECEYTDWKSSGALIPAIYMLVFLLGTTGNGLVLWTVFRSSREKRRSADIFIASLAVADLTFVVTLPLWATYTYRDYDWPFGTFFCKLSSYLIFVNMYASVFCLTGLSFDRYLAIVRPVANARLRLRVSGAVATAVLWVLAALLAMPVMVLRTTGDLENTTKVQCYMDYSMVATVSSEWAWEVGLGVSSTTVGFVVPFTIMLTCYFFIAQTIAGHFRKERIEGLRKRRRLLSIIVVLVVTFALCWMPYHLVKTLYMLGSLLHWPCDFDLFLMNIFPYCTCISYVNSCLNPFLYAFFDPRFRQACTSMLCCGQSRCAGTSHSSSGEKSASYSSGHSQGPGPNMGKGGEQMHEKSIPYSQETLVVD
In words: Agonist activity at APJ receptor in HEK293 cells assessed as inhibition of forskolin-induced cAMP level incubated for 5 mins prior to forskolin challenge measured after 30 mins by TR-FRET assay.

In assay [2] the target is T2, Apelin receptor (Homo sapiens) (UniProt P35414).
T2 sequence (whole entry): T1 sequence (P35414 whole entry)
As to the kind of experiment: Agonist activity at APJ receptor in HEK293 cells assessed as inhibition of forskolin-induced cAMP level incubated for 5 mins prior to forskolin challenge measured after 30 mins by TR-FRET assay relative to [pyr1]-apelin-13.

Activity calls are given as the source filed them. No cut-off for these calls is given here. Residues, ends and D or L forms follow the SMILES beside them. *: point of attachment. Palmitoyl = CCCCCCCCCCCCCCCC(=O)*

Broadly, the EC50 is the midpoint of the concentration-response curve.

With `CCCCCCCCCCCCC/C=C/[C@@H](O)[C@@H](N)COP(=O)(O)O`, the outcome in assay [1] was Active.
Consider `CCCCCCCCCCCCCCCC(=O)N1CCC[C@H]1C(=O)N[C@@H](CC(C)C)C(=O)N[C@@H](Cc1c[nH]c2ccccc12)C(=O)N[C@@H](C)C(=O)N[C@H](C(=O)N[C@@H](Cc1ccc(O)cc1)C(=O)N[C@H](C(=O)N[C@@H](Cc1ccc(O)cc1)C(=O)N[C@@H](CCCNC(=N)N)C(N)=O)[C@@H](C)O)[C@@H](C)O` (Palmitoyl-PLWATYTYR-NH2), for which the EC50 at Apelin receptor was more than 30000 nM.
As for `CCCCCCCCCCCCCCCC(=O)N[C@H](C(=O)N[C@@H](C)C(=O)N[C@@H](CC(C)C)C(=O)N1CCC[C@H]1C(=O)N[C@@H](CC(C)C)C(=O)N[C@@H](Cc1c[nH]c2ccccc12)C(=O)N[C@@H](C)C(=O)N[C@H](C(=O)N[C@@H](Cc1ccc(O)cc1)C(=O)N[C@H](C(=O)N[C@@H](Cc1ccc(O)cc1)C(=O)N[C@@H](CCCNC(=N)N)C(N)=O)[C@@H](C)O)[C@@H](C)O)C(C)C` (Palmitoyl-VALPLWATYTYR-NH2), in assay [2], the %max was determined as 45%. The EC50 at Apelin receptor came out at 41.3 nM.
Consider `CCCCCCCCCCCCCCCC(=O)N[C@H](C(=O)N[C@H](C(=O)N[C@@H](C)C(=O)N1CCC[C@H]1C(=O)N[C@@H](CC(C)C)C(=O)N[C@@H](Cc1c[nH]c2ccccc12)C(=O)N[C@@H](C)C(=O)N[C@H](C(=O)N[C@@H](Cc1ccc(O)cc1)C(=O)N[C@H](C(=O)N[C@@H](Cc1ccc(O)cc1)C(=O)N[C@@H](CCCNC(=N)N)C(N)=O)[C@@H](C)O)[C@@H](C)O)[C@@H](C)O)C(C)C` (Palmitoyl-VTAPLWATYTYR-NH2), for which the 50% effective concentration (EC50) on Apelin receptor was more than 30000 nM.
The same measure, in the same setting: with `CCCCCCCCCCCCCCCC(=O)N[C@H](C(=O)N[C@H](C(=O)N[C@@H](CC(C)C)C(=O)N[C@@H](C)C(=O)N[C@@H](CC(C)C)C(=O)N[C@@H](Cc1c[nH]c2ccccc12)C(=O)N[C@@H](C)C(=O)N[C@H](C(=O)N[C@@H](Cc1ccc(O)cc1)C(=O)N[C@H](C(=O)N[C@@H](Cc1ccc(O)cc1)C(=O)N[C@@H](CCCNC(=N)N)C(N)=O)[C@@H](C)O)[C@@H](C)O)[C@@H](C)O)C(C)C` (Palmitoyl-VTLALWATYTYR-NH2) the figure was more than 30000 nM; with `CCCCCCCCCCCCCCCC(=O)N[C@H](C(=O)N[C@H](C(=O)N[C@@H](CC(C)C)C(=O)N1CCC[C@H]1C(=O)N[C@@H](C)C(=O)N[C@@H](Cc1c[nH]c2ccccc12)C(=O)N[C@@H](C)C(=O)N[C@H](C(=O)N[C@@H](Cc1ccc(O)cc1)C(=O)N[C@H](C(=O)N[C@@H](Cc1ccc(O)cc1)C(=O)N[C@@H](CCCNC(=N)N)C(N)=O)[C@@H](C)O)[C@@H](C)O)[C@@H](C)O)C(C)C` (Palmitoyl-VTLPAWATYTYR-NH2), more than 30000 nM; with `CCCCCCCCCCCCCCCC(=O)N[C@H](C(=O)N[C@H](C(=O)N[C@@H](CC(C)C)C(=O)N1CCC[C@H]1C(=O)N[C@@H](CC(C)C)C(=O)N[C@@H](C)C(=O)N[C@@H](C)C(=O)N[C@H](C(=O)N[C@@H](Cc1ccc(O)cc1)C(=O)N[C@H](C(=O)N[C@@H](Cc1ccc(O)cc1)C(=O)N[C@@H](CCCNC(=N)N)C(N)=O)[C@@H](C)O)[C@@H](C)O)[C@@H](C)O)C(C)C` (Palmitoyl-VTLPLAATYTYR-NH2), more than 30000 nM.
Consider `CCCCCCCCCCCCCCCC(=O)N[C@H](C(=O)N[C@H](C(=O)N[C@@H](CC(C)C)C(=O)N1CCC[C@H]1C(=O)N[C@@H](CC(C)C)C(=O)N[C@@H](Cc1c[nH]c2ccccc12)C(=O)N[C@@H](C)C(=O)N[C@@H](C)C(=O)N[C@@H](Cc1ccc(O)cc1)C(=O)N[C@H](C(=O)N[C@@H](Cc1ccc(O)cc1)C(=O)N[C@@H](CCCNC(=N)N)C(N)=O)[C@@H](C)O)[C@@H](C)O)C(C)C` (Palmitoyl-VTLPLWAAYTYR-NH2), for which, in assay [2], the %max amounted to 53.6%. The EC50 at Apelin receptor was found to be 21.5 nM.
Regarding `CCCCCCCCCCCCCCCC(=O)N[C@H](C(=O)N[C@H](C(=O)N[C@@H](CC(C)C)C(=O)N1CCC[C@H]1C(=O)N[C@@H](CC(C)C)C(=O)N[C@@H](Cc1c[nH]c2ccccc12)C(=O)N[C@@H](C)C(=O)N[C@H](C(N)=O)[C@@H](C)O)[C@@H](C)O)C(C)C` (Palmitoyl-VTLPLWAT-NH2), at Apelin receptor, the EC50 is more than 30000 nM.
In the case of `CCCCCCCCCCCCCCCC(=O)N[C@H](C(=O)N[C@H](C(=O)N[C@@H](CC(C)C)C(=O)N1CCC[C@H]1C(=O)N[C@@H](CC(C)C)C(=O)N[C@@H](Cc1c[nH]c2ccccc12)C(=O)N[C@@H](C)C(=O)N[C@H](C(=O)N[C@@H](C)C(=O)N[C@H](C(=O)N[C@@H](Cc1ccc(O)cc1)C(=O)N[C@@H](CCCNC(=N)N)C(N)=O)[C@@H](C)O)[C@@H](C)O)[C@@H](C)O)C(C)C` (Palmitoyl-VTLPLWATATYR-NH2), in assay [2], the %max turned out to be 84.3%. The concentration giving a half-maximal response (EC50) on Apelin receptor came to 95.7 nM.
Turning to `CCCCCCCCCCCCCCCC(=O)N[C@H](C(=O)N[C@H](C(=O)N[C@@H](CC(C)C)C(=O)N1CCC[C@H]1C(=O)N[C@@H](CC(C)C)C(=O)N[C@@H](Cc1c[nH]c2ccccc12)C(=O)N[C@@H](C)C(=O)N[C@H](C(=O)N[C@@H](Cc1ccc(O)cc1)C(=O)N[C@@H](C)C(=O)N[C@@H](Cc1ccc(O)cc1)C(=O)N[C@@H](CCCNC(=N)N)C(N)=O)[C@@H](C)O)[C@@H](C)O)C(C)C` (Palmitoyl-VTLPLWATYAYR-NH2), at Apelin receptor, the EC50 was more than 30000 nM.
For `CCCCCCCCCCCCCCCC(=O)N[C@H](C(=O)N[C@H](C(=O)N[C@@H](CC(C)C)C(=O)N1CCC[C@H]1C(=O)N[C@@H](CC(C)C)C(=O)N[C@@H](Cc1c[nH]c2ccccc12)C(=O)N[C@@H](C)C(=O)N[C@H](C(=O)N[C@@H](Cc1ccc(O)cc1)C(=O)N[C@H](C(=O)N[C@@H](C)C(=O)N[C@@H](CCCNC(=N)N)C(N)=O)[C@@H](C)O)[C@@H](C)O)[C@@H](C)O)C(C)C` (Palmitoyl-VTLPLWATYTAR-NH2), the %max in assay [2] worked out at 62.5%. At Apelin receptor, the EC50 was 2.7 nM.
